Data on 21 compounds can be found in patent US20220313701A1, “MODULATORS OF TREX1” (Constellation Pharmaceuticals, Inc., priority 2019, published 2022).

The target in one test is T1, full length human TREX1 (Homo sapiens, UniProt Q9NSU2).
T1 construct: N-terminally His-Tev tagged full length human TREX1; His-Tev (His tag with TEV site) (N); made in house; host or cells: E. coli
T1 sequence (Q9NSU2 1-314): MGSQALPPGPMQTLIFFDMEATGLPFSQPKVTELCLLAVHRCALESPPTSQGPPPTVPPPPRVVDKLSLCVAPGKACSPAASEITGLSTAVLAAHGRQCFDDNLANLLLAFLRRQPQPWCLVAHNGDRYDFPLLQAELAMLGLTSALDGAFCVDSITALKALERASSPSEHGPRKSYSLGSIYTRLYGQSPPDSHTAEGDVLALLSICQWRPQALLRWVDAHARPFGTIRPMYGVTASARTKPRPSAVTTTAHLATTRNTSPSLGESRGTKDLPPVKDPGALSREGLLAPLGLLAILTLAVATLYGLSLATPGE
Description: TREX1 Biochemical Assay (fluorescence assay, degradation of dsDNA substrate). The following applies: 150 pM TREX1, 60 nM dsDNA substrate, 25 minutes at room temperature. On the procedure:
Degradation of the dsDNA liberates free fluorophore to produce a fluorescent signal. Specifically, 7.5 μL of N-terminally His-Tev tagged full length human TREX1 (expressed in E. coli and purified in house) in reaction buffer (50 mM Tris (pH 7.4), 150 mM NaCl, 2 mM DTT, 0.1 mg/mL BSA, 0.01% (v/v) Tween-20 and either 100 mM MgCl2) was added to a 384-well Black ProxiPlate Plus (Perkin Elmer) which already contained compound (150 nL) at varying concentrations as a 10 point dose-response in DMSO. To this was added 7.5 μL of dsDNA substrate (Strand A: 5′ TEX615/GCT AGG CAG 3′; Strand B: 5′ CTG CCT AGC/IAbRQSp (Integrated DNA Technologies)) in reaction buffer. Final concentrations were 150 pM TREX1, 60 nM dsDNA substrate in reaction buffer with 1.0% DMSO (v/v). After 25 minutes at room temperature, reactions were quenched by the addition of 5 μL of stop buffer (same as reaction buffer plus 200 mM EDTA). Final concentrations in the quenched reaction were 112.5 pM TREX1, 45 nM DNA and 50 mM EDTA in a volume of 20 μL. After a 5-minute incubation at room temperature, plates were read in a laser sourced Envision (Perkin-Elmer), measuring fluorescence at 615 nm following excitation w/570 nm light. IC50 values were calculated by comparing the measured fluorescence at 615 nm ratio relative to control wells pre-quenched w/stop buffer (100% inhibition) and no inhibitor (0% inhibition) controls as using non-linear least square four parameter fits and either Genedata or GraphPad Prism (GraphPad Software, Inc.).

For test [1], the target named is T2, human TREX2 (residues M44-A279) (Homo sapiens, UniProt Q9BQ50).
T2 construct: human TREX2 (residues M44-A279, expressed in E. coli); His-Tev (His tag with TEV site) (N); made in house; host or cells: E. coli
T2 sequence (Q9BQ50 44-279 isoform Q9BQ50-1): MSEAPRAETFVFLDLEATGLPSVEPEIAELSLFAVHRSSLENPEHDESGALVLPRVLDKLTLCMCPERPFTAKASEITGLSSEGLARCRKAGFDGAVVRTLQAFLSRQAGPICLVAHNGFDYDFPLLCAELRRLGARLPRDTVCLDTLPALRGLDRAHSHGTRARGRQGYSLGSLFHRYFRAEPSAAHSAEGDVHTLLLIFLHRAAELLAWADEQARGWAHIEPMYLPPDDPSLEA
The test is described as follows: TREX2 Biochemical Assay (fluorescence assay, degradation of dsDNA substrate). The following applies: 2.5 nM TREX2, 60 nM dsDNA substrate, 25 minutes at room temperature. The method, then: Degradation of the dsDNA liberates free fluorophore to produce a fluorescent signal. Specifically, 7.5 μL of N-terminally His-Tev tagged human TREX2 (residues M44-A279, expressed in E. coli and purified in house) in reaction buffer (50 mM Tris (pH 7.4), 150 mM NaCl, 2 mM DTT, 0.1 mg/mL BSA, 0.01% (v/v) Tween-20 and 100 mM MgCl2) was added to a 384-well Black ProxiPlate Plus (Perkin Elmer) which already contained compound (150 nL) at varying concentrations as a 10 point dose-response in DMSO. To this was added 7.5 μL of dsDNA substrate (Strand A: 5′ TEX615/GCT AGG CAG 3′; Strand B: 5′ CTG CCT AGC/IAbRQSp (IDT)) in reaction buffer. Final concentrations were 2.5 nM TREX2, 60 nM dsDNA substrate in reaction buffer with 1.0% DMSO (v/v). After 25 minutes at room temperature, reactions were quenched by the addition of 5 μL of stop buffer (same as reaction buffer plus 200 mM EDTA). Final concentrations in the quenched reaction mixture were […] TREX2, 45 nM DNA and 50 mM EDTA in a volume of 20 μL. After a 5-minute incubation at room temperature, plates were read in a laser sourced Envision (Perkin-Elmer), measuring fluorescence at 615 nm following excitation w/570 nm light. IC50 values were calculated by comparing the measured fluorescence at 615 nm ratio relative to control wells pre-quenched w/stop buffer (100% inhibition) and no inhibitor (0% inhibition) controls as using non-linear least square four parameter fits and either Genedata or GraphPad Prism (GraphPad Software, Inc.).

Bounds are passed on as bounds.

Take `Cc1nn(C)cc1-c1cc(CO)cc(N2CCC(O)(c3ccc(F)c(F)c3)CC2)n1` [Example 44, 4-(3,4-difluorophenyl)-1-(6-(1,3-dimethyl-1H-pyrazol-4-yl)-4-(hydroxymethyl)pyridin-2-yl)piperidin-4-ol]: the IC50 against full length human TREX1 was in the range of 0.1 to 1 µM; in test [1], 10 to 100 µM.
Take `Cc1nn(C)cc1-c1cc(C(C)(C)O)cc(N2CCC(O)(c3ccc(F)c(F)c3)CC2)n1` [Example 45, 4-(3,4-difluorophenyl)-1-(6-(1,3-dimethyl-1H-pyrazol-4-yl)-4-(2-hydroxypropan-2-yl)pyridin-2-yl)piperidin-4-ol]: the IC50 was less than 0.1 µM against full length human TREX1 and 10 to 100 µM in test [1].
As for `Cc1nn(C)cc1-c1cc(C(F)(F)F)cc(N2CCC(O)(c3ccc(F)c(F)c3)CC2)n1` [Example 46, 4-(3,4-difluorophenyl)-1-(6-(1,3-dimethyl-1H-pyrazol-4-yl)-4-(trifluoromethyl)pyridin-2-yl)piperidin-4-ol], the IC50 was 0.1 to 1 µM against full length human TREX1 and more than 100 µM in test [1].
For `Cc1nn(C)cc1-c1cncc(N2CCC(O)(c3cc(F)c(F)c(F)c3)CC2)n1` [Example 47, 1-(6-(1,3-dimethyl-1H-pyrazol-4-yl)pyrazin-2-yl)-4-(3,4,5-trifluorophenyl)piperidin-4-ol] the same measures were less than 0.1 µM and 10 to 100 µM.
As for `Cc1nn(C(C)C)cc1-c1cncc(N2CCC(O)(c3ccc(F)c(F)c3)CC2)n1` [Example 48, 4-(3,4-difluorophenyl)-1-(6-(1-isopropyl-3-methyl-1H-pyrazol-4-yl)pyrazin-2-yl)piperidin-4-ol], the IC50 on full length human TREX1 is less than 0.1 µM; in test [1], 10 to 100 µM.
`Cc1nn(C)cc1-c1cc(N2CCC(O)(c3ccc(F)c(F)c3)CC2)ccn1` [Example 49, 4-(3,4-difluorophenyl)-1-(2-(1,3-dimethyl-1H-pyrazol-4-yl)pyridin-4-yl)piperidin-4-ol]: the results for the IC50 (on full length human TREX1; in test [1]) were 1 to 10 µM and more than 100 µM, respectively.
The matching figures for `Cn1nc(C(F)(F)F)cc1-c1cncc(N2CCC(O)(c3ccc(F)c(F)c3)CC2)n1` [Example 50, 4-(3,4-difluorophenyl)-1-(6-(1-methyl-3-(trifluoromethyl)-1H-pyrazol-5-yl)pyrazin-2-yl)piperidin-4-ol]: more than 10 µM and more than 100 µM.
For `Cc1nn(C)cc1-c1ccnc(N2CCC(O)(c3ccc(F)c(F)c3)CC2)n1` [Example 51, 4-(3,4-difluorophenyl)-1-(4-(1,3-dimethyl-1H-pyrazol-4-yl)pyrimidin-2-yl)piperidin-4-ol] the same measures were 0.1 to 1 µM and more than 100 µM.
For `Cc1noc(C)c1-c1cncc(N2CCC(O)(c3ccc(F)c(F)c3)CC2)n1` [Example 52, 4-(3,4-difluorophenyl)-1-(6-(3,5-dimethylisoxazol-4-yl)pyrazin-2-yl)piperidin-4-ol] the same measures were 1 to 10 µM and more than 100 µM.
For `Cc1cc(-c2cncc(N3CCC(O)(c4ccc(F)c(F)c4)CC3)n2)n(C)n1` [Example 53, 4-(3,4-difluorophenyl)-1-(6-(1,3-dimethyl-1H-pyrazol-5-yl)pyrazin-2-yl)piperidin-4-ol], the results for the IC50 (on full length human TREX1; in test [1]) were 1 to 10 µM and more than 100 µM, respectively.
For `Cc1nn(C)cc1-c1nccc(N2CCC(O)(c3ccc(F)c(F)c3)CC2)n1` [Example 54, 4-(3,4-difluorophenyl)-1-(2-(1,3-dimethyl-1H-pyrazol-4-yl)pyrimidin-4-yl)piperidin-4-ol], the IC50 against full length human TREX1 was 1 to 10 µM; in test [1], more than 100 µM.
The matching figures for `Cc1nn(C)cc1-c1ccnc(N2CCC(O)(c3ccc(F)c(F)c3)CC2)c1` [Example 55, 4-(3,4-difluorophenyl)-1-(4-(1,3-dimethyl-1H-pyrazol-4-yl)pyridin-2-yl)piperidin-4-ol]: more than 10 µM and more than 100 µM.
As to `Cc1nn(C)cc1-c1cncc(N2CCC(O)(c3ccc(F)cc3)C(F)(F)C2)n1` (stereo not drawn) [Example 56, 1-(6-(1,3-dimethyl-1H-pyrazol-4-yl)pyrazin-2-yl)-3,3-difluoro-4-(4-fluorophenyl)piperidin-4-ol], the IC50 on full length human TREX1 was 0.1 to 1 µM; in test [1], more than 100 µM.
The matching figures for `Cc1nc(-c2cn(C)nc2C)cc(N2CCC(O)(c3ccc(F)c(F)c3)CC2)n1` [Example 57, 4-(3,4-difluorophenyl)-1-(6-(1,3-dimethyl-1H-pyrazol-4-yl)-2-methylpyrimidin-4-yl)piperidin-4-ol]: less than 0.1 µM and more than 100 µM.
The matching figures for `Cc1nn(C)cc1-c1cc(N2CCC(O)(c3ccc(F)c(F)c3)CC2)ncn1` [Example 58, 4-(3,4-difluorophenyl)-1-(6-(1,3-dimethyl-1H-pyrazol-4-yl)pyrimidin-4-yl)piperidin-4-ol]: less than 0.1 µM and 10 to 100 µM.
For `Cc1nn(C)cc1-c1cc(N2CCC(O)(c3ccc(F)c(F)c3)CC2)nc(-c2ccccc2)n1` [Example 59, 4-(3,4-difluorophenyl)-1-(6-(1,3-dimethyl-1H-pyrazol-4-yl)-2-phenylpyrimidin-4-yl)piperidin-4-ol] the same measures were 1 to 10 µM and more than 100 µM.
As to `Cn1cc(-c2cc(-c3cnn(C)c3)nc(N3CCC(O)(c4cccc(F)c4)CC3)c2)cn1` [Example 60, 1-(4,6-bis(1-methyl-1H-pyrazol-4-yl)pyridin-2-yl)-4-(3-fluorophenyl)piperidin-4-ol], the values for the IC50 (on full length human TREX1; in test [1]) were 1 to 10 µM and more than 100 µM, respectively.
Take `Cn1cc(-c2cc(N3CCC(O)(c4cccc(F)c4)CC3)cc(-c3cnn(C)c3)n2)cn1` [Example 61, 1-(2,6-bis(1-methyl-1H-pyrazol-4-yl)pyridin-4-yl)-4-(3-fluorophenyl)piperidin-4-ol]: the IC50 against full length human TREX1 was 1 to 10 µM; in test [1], more than 100 µM.
For `Cc1nn(C)c(C)c1-c1cncc(N2CCC(O)(c3ccc(F)c(F)c3)CC2)n1` [Example 62, 4-(3,4-difluorophenyl)-1-(6-(1,3,5-trimethyl-1H-pyrazol-4-yl)pyrazin-2-yl)piperidin-4-ol] the same measures were less than 0.1 µM and 10 to 100 µM.
The matching figures for `CCn1cc(-c2cncc(N3CCC(O)(c4ccc(F)c(F)c4)CC3)n2)c(C)n1` [Example 63, 4-(3,4-difluorophenyl)-1-(6-(1-ethyl-3-methyl-1H-pyrazol-4-yl)pyrazin-2-yl)piperidin-4-ol]: less than 0.1 µM and 1 to 10 µM.
For `O=C(NCCc1ccccc1)c1cncc(N2CCC(O)(c3ccc(F)cc3)CC2)n1` [Example 64, 6-(4-(4-fluorophenyl)-4-hydroxypiperidin-1-yl)-N-phenethylpyrazine-Z-carboxamide] the same measures were 1 to 10 µM and more than 100 µM.
